Reference: patent US7371779B2, “Synergistic compositions of N-acylhomoserine lactones and 4-quinolones” (The Secretary of State for Defense Science and Technology, priority 2001, dated 2008)
Read-outs that look alike come from different tables or passages of the source.

Key:
[1] = test system: murine splenocytes; assay: ConA mitogen-stimulated proliferation of murine splenocytes ([3H]-thymidine incorporation); assay type: cell-based, mouse (BALB/c); details: for IC50: ConA 1 μg/ml, 100,000 spleen cells, Experiment I, read-out: IC50 in inhibition of ConA induced murine splenocyte proliferation
Procedure: (§1) Proliferation was assessed by the incorporation of [^3H]-thymidine into DNA. Eight-week-old female BALB/c mice were obtained from Harlan (Bicester, Oxon, UK) and given food and water ad libitum. Splenocyte suspensions were prepared by removing the spleens and placing them into RPMI 1640 medium. The spleens were forced through 70-μm-pore-size wire gauzes using the plunger from a 5-ml syringe to produce a single cell suspension. The cells were pelleted by centrifugation, and erythrocytes were lysed with 0.017 M Tris, 0.144 M ammonium chloride buffer, pH 7.2. Leucocytes were washed twice with RPMI 1640 medium with 2% (vol/vol) foetal calf serum (FCS) and resuspended in complete cell culture medium (CTCM) consisting of RPMI 1640 medium with 5% FCS, 2 mM L-glutamine, and 5×10^−5 M 2-mercaptoethanol. HSL compounds were tested at doubling down dilutions ranging from 1 mM to 0.1 μM in a final volume of 200 μl of CTCM, containing ConA (Sigma, Poole, UK) at 1 μg/ml and 100,000 spleen cells. Following incubation for 48 h at 37° C. in 5% CO2-air, 0.25 μCi [^3H]-thymidine (Amersham) in 10 μl volume made up in RPMI 1640 medium was added and the cells were incubated for a further 24 h. Cells were harvested onto fibreglass filters with a Packard filtermate harvester. After the addition of 25 μl of MicroScint-O (Packard) to each well the filters were counted with the Packard TopCount scintillation counter.
(§2) Mitogen (Concanavalin A) induced murine splenocyte proliferation was indicated by the incorporation of tritated thymidine into the DNA in the mouse spleen cells as shown by counts per minute using the scintillation counter. The inhibitory effect of an HSL compound being tested on cell proliferation was indicated by a reduction in counts per minute.
as §1, with “70 μm pore size” for “70-μm-pore-size”, “5 ml” for “5-ml”, “The title compound was” for “HSL compounds were”, “dilutions” for “dilutions ranging from 1 mM to 0.1 μM in a final volume of 200 μl of CTCM,”, “g/ml” for “μg/ml”, “COrair,” for “CO2-air,”
as §2, with “the title” for “an HSL”

[2] = test system: human PBMC; assay: ConA mitogen-stimulated proliferation of human PBMC ([3H]-thymidine incorporation); assay type: cell-based; details: Experiment II, read-out: IC50 in inhibition of ConA induced cell proliferation of PBMC
Procedure: Blood specimens were obtained with consent from healthy human volunteers. Human peripheral blood mononuclear cells (PBMC) were isolated from heparinised whole blood by buoyant density centrifugation over Histopaque 1077 (Sigma, Poole, UK) at 600 g for 20 minutes. PBMC harvested from the ‘buffy’ layers were washed twice with RPMI 1640 medium and resuspended in CTCM. […] Human PBMC were incubated for 48 h at 37° C. in 5% CO2-air, followed by pulsing with 0.25 μCi [^3H]-thymidine (see above). After a further incubation of 24 h cells were harvested onto fibreglass filters and then counted in the presence of MicroScint-O with the Packard TopCount.
Concanavalin induced cell proliferation of human peripheral blood mononuclear cells (PBMC) was tracked, as described in I above, by a measurement of counts per minute using the scintillation counter. The inhibitory effect of an HSL compound being tested on cell proliferation was indicated by a reduction in counts per minute. […] Columns B, C and D represent different sources of human PBMC samples used.
Plots of counts per minute (cpm) against the concentration of the quorum sensing molecules and the vehicle are shown in FIG. 11.

[3] = test system: TNF-alpha; assay: TNF-alpha production from LPS-stimulated human PBMC (sandwich ELISA); assay type: cell-based; details: for IC50: Experiment III, read-out: IC50 in inhibition of LPS induced production of TNF-α by human PBMC
Procedure: Bacterial lipopolysaccharide (LPS) stimulates the production of a variety of cytokines, including TNF-alpha, from human PBMC; these cytokines in turn influence the development of T cells, supporting a T helper 1 conducive milieu. Human PBMC prepared from whole blood by buoyant density centrifugation were resuspended in CTCM. […] Following incubation for 24 h at 37° C. in 5% CO2-air, the cell culture supernatants were collected and tested for TNF-alpha levels by ‘sandwich’ ELISA. Briefly, 96-well Nunc MaxiSorp (Life Technologies, Paisley, UK) plates were coated with 50 μl of a 2 μg/ml solution of mouse anti-human TNF-alpha monoclonal antibody (Pharmingen, UK) in 0.05 M carbonate/bicarbonate buffer, pH 9.6 overnight at 4° C. After washing the plates three times with PBS-Tween, which contained phosphate buffered saline (PBS) with 0.5% (vol/vol) Tween 20 (Sigma, Poole, UK), the plates were blocked with 1% (wt/vol) bovine serum albumin (BSA) (Sigma, Poole, UK) at room temperature for 2 h. Following three washes with PBS-Tween, 50 μl of cell culture supernatants were added and incubated overnight at 4° C.; standard human TNF-alpha (Pharmingen, UK) ranging from 2000 to 31.25 pg/ml were included for each plate. After four washes with PBS-Tween, 50 μl of a second antibody, biotinylated mouse anti-human TNF-alpha monoclonal antibody (Pharmingen, UK) was added at 0.5 μg/1 ml diluted in 1% BSA in PBS-Tween and incubated at room temperature for 1 h. Following four washes, the bound biotinylated antibody was detected with 50 μl of a 1:1,000 dilution of Streptavidin-peroxidase (Pharmingen, UK). At the end of an hour incubation at room temperature, the plates were thoroughly washed six times with PBS-Tween and the assay was developed by the addition of 100 μl of 0.1 mg/ml of tetramethyl benzidine subtrate (Sigma, Poole, UK) in 0.1 M sodium acetate buffer, pH 6 containing 0.03% H2O2. The enzyme reaction was stopped with 50 μl of 2.5 M H2SO4 after an incubation of 10 minutes at room temperature and the development was read at 450 nm with a spectrophotometric 96-well plate reader (Dynex).

Compound | IC50 [1] | IC50 ([2]; human PBMC source B) | other results
CCCCCC(=O)CC(=O)N[C@H]1CCOC1=O [OOHL, N-(3-oxooctanoyl)-L-homoserine lactone, reference compound] | – | – | inhibition of ConA induced murine splenocyte proliferation (cpm), in words ([1]; ConA 1 μg/ml, BALB/c splenocytes): failed to inhibit proliferation
CCCCCCCCCCC(=O)CC(=O)N[C@H]1CCOC1=O [Example 8, N-(3-Oxotridecanoyl)-L-homoserine lactone] | 4 µM | 41 µM | IC50 ([2]; human PBMC source C): 7 µM; IC50 ([2]; human PBMC source D): 25 µM
COC(=O)CCCCCCCCCCC(=O)CC(=O)N[C@H]1CCOC1=O [Example 13, N-(13-Methoxycarbonyl-3-oxotridecanoyl)-L-homoserine lactone] | 6 µM | 15 µM | IC50 ([2]; human PBMC source D): 20 µM
CCC=CCCCCCCCC(O)CC(=O)N[C@H]1CCOC1=O (stereo partly drawn) [Example 26, N-(3-Hydroxy-11-tetradecenoyl)-L-homoserine lactone] | 20 µM | – | –
CCCC(=O)CC(=O)N[C@H]1CCOC1=O [OHHL, reference compound] | – | – | inhibition of LPS induced TNF-α production by human PBMC, in words ([3]; LPS-stimulated human PBMC): difference in activity between OHHL and OdDHL is marked
CC(C)CCCCCCC(=O)CC(=O)N[C@H]1CCOC1=O [Example 3, N-(10-Methyl-3-oxoundecanoyl)-L-homoserine lactone] | 8 µM | – | IC50 ([2]; human PBMC source D): 25 µM
CCCCCCCCCC(O)CC(=O)N[C@H]1CCOC1=O (stereo partly drawn) [Example 21, N-(3-Hydroxydodecanoyl)-L-homoserine lactone] | 12 µM | – | –
O=C(CCCCCCCCCCBr)CC(=O)N[C@H]1CCOC1=O [Example 9, N-(13-Bromo-3-oxotridecanoyl)-L-homoserine lactone] | 3 µM | 8 µM | IC50 ([2]; human PBMC source D): 12 µM
C=CCCCCCCCCC(=O)CC(=O)N[C@H]1CCOC1=O [Example 10, N-(3-Oxo-12-tridecenoyl)-L-homoserine lactone] | 7 µM | – | –
N-(3-Hydroxy-9-tetradecenoyl)-L-homoserine lactone [Example 24] | 15 µM | – | –
CCC=CCCCCCCCC(=O)CC(=O)N[C@H]1CCOC1=O [Example 17, N-(3-Oxo-11-tetradecenoyl)-L-homoserine lactone] | 12 µM | – | –
O=C(CCCCCCCCCBr)CC(=O)N[C@H]1CCOC1=O [Example 7, N-(12-Bromo-3-oxododecanoyl)-L-homoserine lactone] | 6 µM | 20 µM | IC50 [3]: 63 µM; IC50 ([2]; human PBMC source D): 7 µM
CCCC=CCCCCCCC(O)CC(=O)N[C@H]1CCOC1=O (stereo partly drawn) [Example 25, N-(3-Hydroxy-10-tetradecenoyl)-L-homoserine lactone] | 20 µM | – | –
O=C(CCCCCCCCCO)CC(=O)N[C@H]1CCOC1=O [Example 19, N-(12-Hydroxy-3-oxododecanoyl)-L-homoserine lactone] | 9 µM | – | IC50 [3]: 70 µM
CCCCCC(C)CCC(=O)CC(=O)N[C@H]1CCOC1=O (stereo partly drawn) [Example 5, N-(6-Methyl-3-oxoundecanoyl)-L-homoserine lactone] | 5 µM | 20 µM | –
COC(=O)CCCCCCC(=O)CC(=O)N[C@H]1CCOC1=O [Example 4, N-(10-Methoxycarbonyl-3-oxodecanoyl)-L-homoserine lactone] | 73 µM | 20 µM | IC50 ([2]; human PBMC source D): 63 µM
CCCCCCCCCCCC(O)CC(=O)N[C@H]1CCOC1=O (stereo partly drawn) [Example 22, N-(3-Hydroxytetradecanoyl)-L-homoserine lactone] | 7 µM | – | –
O=C(CCCCCCCCBr)CC(=O)N[C@H]1CCOC1=O [Example 2, N-(11-Bromo-3-oxoundecanoyl)-L-homoserine lactone] | 6 µM | 18 µM | –
C=CCCCCCCCCCC(=O)CC(=O)N[C@H]1CCOC1=O [Example 18, N-(3-Oxo-13-tetradecenoyl)-L-lactone homoserine] | 10 µM | – | –
C=CCCCCCCCCCC(O)CC(=O)N[C@H]1CCOC1=O (stereo partly drawn) [Example 27, N-(3-Hydroxy-13-tetradecenoyl)-L-homoserine lactone] | 18 µM | – | –
CN(C)C(=O)CCCCCCCCC(=O)CC(=O)N[C@H]1CCOC1=O [Example 20, N-[11-(N,N-Dimethylcarbamoyl)-3-oxoundecanoyl]-L-homoserine lactone] | 35 µM | – | –
O=C(CCCCCCCCCCCBr)CC(=O)N[C@H]1CCOC1=O [Example 12, N-(14-Bromo-3-oxotetradecanoyl)-L-homoserine lactone] | 8 µM | – | –
CCCCCCCCC(=O)CC(=O)N[C@H]1CCOC1=O [Example 1, N-(3-oxoundecanoyl)-L-homoserine lactone] | 9 µM | 63 µM | IC50 ([2]; human PBMC source C): 13 µM; IC50 ([2]; human PBMC source D): 44 µM
CCCCCCC=CCCCC(=O)CC(=O)N[C@H]1CCOC1=O [Example 14, N-(3-Oxo-7-tetradecenoyl)-L-homoserine lactone] | 17 µM | – | –
CCCC=CCCCCCCC(=O)CC(=O)N[C@H]1CCOC1=O [Example 16, N-(3-Oxo-10-tetradecenoyl)-L-homoserine lactone] | 15 µM | – | –
CCCCCCC=CCCCC(O)CC(=O)N[C@H]1CCOC1=O (stereo partly drawn) [Example 23, N-(3-Hydroxy-7-tetradecenoyl)-L-homoserine lactone] | 12 µM | – | –
